# Data from patent US20240254087A1, “SELECTIVE, PARTIAL, AND ARRESTIN-BIASED 5-HT2A AGONISTS WITH UTILITY IN VARIOUS DISORDERS” (Saint Joseph's University, priority 2021, published 2024).
# Read-outs that look alike come from different tables or passages of the source.
# Columns and labels:
# 5-HT2B = 5-HT2B (Homo sapiens, UniProt P41595); experiment: BRET Gq dissociation, 5-HT2B; assay type: cell-based; parameters: expressed in transfected cells; host or cells: HEK293T, transient
# Protocol: (§1) After at least 18-24 hours, transfected cells were plated in poly-lysine coated 96-well white clear bottom cell culture plates in DMEM containing 1% dialyzed FBS at a density of 25-40,000 cells in 200 μL per well and incubated overnight. After approximately 20-24 hours, media was decanted and cells were washed with 60 μL of drug buffer (1×HBSS, 20 mM HEPES, pH 7.4), followed by 60 μL of drug buffer and pre-incubated in a humidified atmosphere at 37° C. before receiving drug stimulation. Drug stimulation was induced by adding 30 μL of a solution of drug (3X) diluted in McCorvy buffer (1×HBSS, 20 mM HEPES, pH 7.4, supplemented with 0.3% BSA fatty acid free, 0.03% ascorbic acid) and plates were incubated at the indicated time and temperature. Fifteen minutes before reading, 10 μL of the RLuc substrate, either coelenterazine h for β-Arrestin recruitment BRET^1 or coelenterazine 400a for Gq dissociation BRET^2 (Prolume/Nanolight, 5 μM final concentration) was addedper well. Plates were read for luminescence at 485 nm and fluorescent eYFP emission at 530 nm for BRET^1 and at 400 nm and fluorescent GFP2 emission at 510 nm for BRET2 at 1 second per well using a Mithras LB940 (Berthold). The BRET ratios of fluorescence/luminescence were calculated per well and were plotted as a function of drug concentration using Graphpad Prism 8 (Graphpad Software Inc., San Diego, CA).
# male C57BL/6J mice = experiment: Head-twitch response (HTR) in mice; assay type: in vivo, mouse; details: for ED50: Mus musculus
# Protocol: Male C57BL/6J mice (6-8 weeks old) from Jackson Labs (Bar Harbor, ME, USA) were used for the behavioral experiments. The mice were housed on a reversed light-dark cycle (lights on at 1900 h, off at 0700 h) in an AAAC-approved vivarium at the University of California San Diego. Mice were housed up to four per cage in a climate-controlled room and with food and water provided ad libitum except during behavioral testing. Testing was performed between 1000 and 1800 h (during the dark phase of the light-dark cycle). The studies were conducted in accordance with National Institutes Health (NIH) guidelines and were approved by the University of California San Diego Institutional Animal Care and Use Committee.
# The mice were allowed to recover from the magnet implantation surgeries for at least 1 week prior to behavioral testing. HTR experiments were conducted in a well-lit room, and the mice were allowed to habituate to the room for at least 1 h prior to testing. Head twitches was assessed in a 12-cm diameter glass cylinder surrounded by a magnetometer coil. Coil voltage was low-pass filtered (2 kHz), amplified, and digitized (20-kHz sampling rate) using a Powerlab/8SP with LabChart v 7.3.2 (ADInstruments, Colorado Springs, CO, USA). […] HTR counts were analyzed using one-way ANOVAs. Dunnett's test was used for post hoc comparisons.
# 5-HT2A [1] = molecular target: T1, 5-HT2A (Homo sapiens, UniProt P28223); experiment: cell-based; parameters: expressed in transfected cells; host or cells: HEK293T, transient; details: for 5-HT2A Gq Emax (% 5-HT) / 5-HT2A Gq dissociation pEC50 / EC50: BRET, mean ± SEM; for Emax: read-out: 5-HT2A Gq Emax (% 5-HT), BRET, mean ± SEM; for EC50: read-out: 5-HT2A Gq dissociation pEC50 (converted)
# T1 sequence (P28223 whole entry): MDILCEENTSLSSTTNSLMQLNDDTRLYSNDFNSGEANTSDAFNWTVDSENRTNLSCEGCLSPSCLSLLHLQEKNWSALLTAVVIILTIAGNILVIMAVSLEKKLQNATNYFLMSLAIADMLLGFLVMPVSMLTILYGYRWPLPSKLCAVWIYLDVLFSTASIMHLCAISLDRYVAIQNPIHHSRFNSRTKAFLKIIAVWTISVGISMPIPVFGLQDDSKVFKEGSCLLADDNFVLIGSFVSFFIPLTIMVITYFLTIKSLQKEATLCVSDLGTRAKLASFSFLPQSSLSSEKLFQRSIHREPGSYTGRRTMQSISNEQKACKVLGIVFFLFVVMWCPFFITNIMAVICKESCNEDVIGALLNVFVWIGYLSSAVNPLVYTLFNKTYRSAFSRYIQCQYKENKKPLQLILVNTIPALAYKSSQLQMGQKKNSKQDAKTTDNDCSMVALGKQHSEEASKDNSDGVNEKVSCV
# Protocol: as §1, with “Plates were read for luminescence at 485 nm and fluorescent eYFP emission at 530 nm for BRET^1 and at 400 nm and fluorescent GFP2 emission at 510 nm for BRET2 at 1 second per well using a Mithras LB940 (Berthold).” left out
# 5-HT2A [2] = molecular target: T1, 5-HT2A; experiment: cell-based; parameters: expressed in transfected cells; host or cells: HEK293T, transient; details: for Emax: read-out: 5-HT2A β-arrestin Emax (% 5-HT), BRET, mean ± SEM
# Protocol: as §1, with “Plates were read for luminescence at 485 nm and fluorescent eYFP emission at 530 nm for BRET^1 and at 400 nm and fluorescent GFP2 emission at 510 nm for BRET2 at 1 second per well using a Mithras LB940 (Berthold).” left out
# 5-HT2C = molecular target: T2, 5-HT2C (Homo sapiens, UniProt P28335); experiment: BRET Gq dissociation, 5-HT2C; assay type: cell-based; parameters: expressed in transfected cells; host or cells: HEK293T, transient; details: for Emax: read-out: 5-HT2C Gq Dissociation (BRET) EMAX ± SEM (%5-HT); for EC50: read-out: 5-HT2C Gq Dissociation (BRET) pEC50 ± SEM (converted)
# T2 sequence (P28335 33-458): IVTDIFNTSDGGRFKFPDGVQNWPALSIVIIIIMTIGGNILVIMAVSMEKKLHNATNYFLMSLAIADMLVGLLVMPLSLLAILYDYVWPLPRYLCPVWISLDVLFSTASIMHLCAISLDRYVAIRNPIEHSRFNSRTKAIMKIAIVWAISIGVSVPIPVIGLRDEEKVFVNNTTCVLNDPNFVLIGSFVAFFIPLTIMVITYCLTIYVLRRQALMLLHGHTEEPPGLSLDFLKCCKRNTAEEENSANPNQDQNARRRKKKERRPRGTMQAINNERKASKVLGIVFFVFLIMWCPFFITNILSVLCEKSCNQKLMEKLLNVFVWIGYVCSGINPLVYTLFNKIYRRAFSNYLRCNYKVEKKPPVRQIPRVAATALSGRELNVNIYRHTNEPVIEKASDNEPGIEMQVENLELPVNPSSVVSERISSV
# Protocol: as §1, with “Plates were read for luminescence at 485 nm and fluorescent eYFP emission at 530 nm for BRET^1 and at 400 nm and fluorescent GFP2 emission at 510 nm for BRET2 at 1 second per well using a Mithras LB940 (Berthold).” left out
# [3] = SC, except DOI and 25D-NBOMe IP
# [4] = BRET, mean ± SEM, read-out: 5-HT2A β-arrestin recruitment pEC50 (converted)
# Chain of 5-HT2B (P41595 whole entry): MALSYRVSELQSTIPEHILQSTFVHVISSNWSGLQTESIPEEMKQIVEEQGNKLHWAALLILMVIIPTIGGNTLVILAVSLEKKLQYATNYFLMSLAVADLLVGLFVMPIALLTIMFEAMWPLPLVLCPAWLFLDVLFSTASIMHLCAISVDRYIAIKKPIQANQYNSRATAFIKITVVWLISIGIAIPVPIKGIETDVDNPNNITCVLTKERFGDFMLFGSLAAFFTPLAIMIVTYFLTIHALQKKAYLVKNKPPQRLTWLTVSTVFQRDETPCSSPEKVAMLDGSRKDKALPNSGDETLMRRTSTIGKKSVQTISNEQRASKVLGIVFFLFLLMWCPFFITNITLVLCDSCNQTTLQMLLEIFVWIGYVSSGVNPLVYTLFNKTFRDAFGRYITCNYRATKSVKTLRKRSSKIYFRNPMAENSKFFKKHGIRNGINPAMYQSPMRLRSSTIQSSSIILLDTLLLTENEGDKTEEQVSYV
Structure (SMILES),5-HT2B Gq Dissociation (BRET) EMAX ± SEM (%5-HT) (5-HT2B),5-HT2B Gq Dissociation (BRET) pEC50 ± SEM (5-HT2B),Max HTR response during a 30-min assessment (maximum counts ÷ baseline response) (male C57BL/6J mice),HTR ED50 μmol/kg (95% CI) (male C57BL/6J mice; [3]),HTR ED50 mg/kg (95% CI) (male C57BL/6J mice; [3]),5-HT2A Gq Emax (% 5-HT) (5-HT2A [1]),5-HT2A Gq dissociation pEC50 (5-HT2A [1]),"5-HT2A β-arrestin Emax (% 5-HT) (5-HT2A [2]; BRET, mean ± SEM)","5-HT2A β-arrestin recruitment pEC50 (5-HT2A [2]; BRET, mean ± SEM)",5-HT2C Gq Dissociation (BRET) EMAX ± SEM (%5-HT) (5-HT2C),5-HT2C Gq Dissociation (BRET) pEC50 ± SEM (5-HT2C),Emax (5-HT2A [1]) [%],EC50 (5-HT2A [2]) [nM],Emax (5-HT2A [2]) [%],Emax (5-HT2C) [%],EC50 (5-HT2C) [nM],EC50 (5-HT2A [1]) [nM],EC50 (5-HT2A [2]; [4]) [nM],"ED50 (male C57BL/6J mice; read-out: HTR ED50 μmol/kg (95% CI), SC, except DOI and 25D-NBOMe IP) [µmol/kg]","ED50 (male C57BL/6J mice; read-out: HTR ED50 mg/kg (95% CI), SC, except DOI and 25D-NBOMe IP) [mg/kg]"
"COc1cc(CCN)c(OC)cc1I [Compound 2C-I, reference compound]",101.0 ± 2.1 %5-HT,7.72 ± 0.07,13.8-fold increase,2.42 (1.46-4.02) μmol/kg,0.83 (0.50-1.38) mg/kg,93.4 ± 1.4,8.83 ± 0.05,74.3 ± 1.6,8.25 ± 0.07,106.9 ± 1.5,9.34 ± 0.05,–,–,–,–,–,–,–,–,–
COc1cc(OC)c(OC)cc1CCNCc1cccc(-c2ccccc2)c1O [(63)],No activity,No activity,–,–,–,–,No activity,–,–,–,–,< 10,102,117 ± 14.6,79.2 ± 2.6,51.3,–,–,–,–
COc1cc(OC)c(OC)cc1CCNCc1cccc(F)c1F [(65)],No activity,No activity,–,–,–,–,–,–,–,–,–,76.5 ± 2.3,–,101 ± 2.7,83.3 ± 6.3,200,64.6,170,–,–
COc1cc(Br)c(Br)c(OC)c1CCNCc1cccc2ccccc12 [(35)],No activity,No activity,–,–,–,–,–,–,–,–,–,30.2 ± 1.5,–,–,69.8 ± 1.3,5.5,3.89,1.95,–,–
COc1cc(OC)c(OC)cc1CCNCc1ccccc1Oc1ccccc1 [(60)],No activity,No activity,–,–,–,–,–,–,–,–,–,63.3 ± 3.5,–,117 ± 14.6,113 ± 11.6,1700,–,–,–,–
COc1cc(CCNCc2ccccc2OC)c(OC)cc1C [25D-NBOMe (26)],–,–,15.6-fold increase,–,–,93.0 ± 1.3,–,–,–,–,–,≥ 76,–,126 ± 3.4,–,–,–,–,0.64,0.23
COc1cc(OC)c(OC)cc1CCNCc1cccc(I)c1O [(49)],No activity,No activity,–,–,–,–,–,–,–,–,–,52.8 ± 1.5,–,80.5 ± 5.5,93.5 ± 3.1,26.9,14.5,11.7,–,–
Brc1c2c(c(CCNCc3cccc4ccccc34)c3c1OCC3)OCC2 [(29)],No activity,No activity,–,–,–,–,–,–,–,–,–,31.8 ± 1.4,–,62.5 ± 2.3,78.1 ± 2.1,4.17,8.71,1.02,–,–
CCOc1ccc(CCNCc2cccc3ccccc23)cc1OC [(37)],No activity,No activity,–,–,–,–,–,–,–,–,–,29.3 ± 1.9,–,75.4 ± 2.4,84.5 ± 2.8,263,–,–,–,–
COc1cc(OC)c(OC)cc1CCNCc1cccc2c1CCC2 [(51)],No activity,No activity,–,–,–,–,–,–,–,–,–,41.2 ± 1.9,–,72.9 ± 4.2,52.5 ± 5.2,93.3,1.7,3.31,–,–
COc1cc(OC)c(OC)cc1CCNCc1cccc2ncccc12 [(57)],No activity,No activity,–,–,–,–,–,–,–,–,–,34.2 ± 4,–,92 ± 8.9,77.6 ± 3.2,200,–,–,–,–
COc1cc(Br)cc(OC)c1CCNCc1cccc(C)c1O [(42)],No activity,No activity,–,–,–,–,–,–,–,–,–,69.2 ± 1.5,–,78.9 ± 3.7,78.1 ± 1.6,1.51,1.1,0.513,–,–
COc1cc(Cl)ccc1CC(C)NCc1cccc(C)c1O (centres unmarked) [(46)],No activity,No activity,–,–,–,–,–,–,–,–,–,67.8 ± 1.6,–,72.9 ± 5.6,95.5 ± 3.2,11.5,4.79,1.12,–,–
COc1cc(Br)ccc1CCNCc1cccc(C)c1O [(41)],No activity,No activity,–,–,–,–,–,–,–,–,–,68.7 ± 1.3,–,86.6 ± 3.9,72.2 ± 1.6,4.9,2.24,2.51,–,–
COc1cc(OC)c(OC)cc1CCNCc1cccc(C)c1C [(50)],No activity,No activity,–,–,–,–,–,–,–,–,–,23.6 ± 1,–,73.9 ± 5.4,30.4 ± 2.7,1.55,3.47,5.75,–,–
COc1cc(CCNCc2cccc(C)c2O)ccc1Cl [(47)],No activity,No activity,–,–,–,–,–,–,–,–,–,66.9 ± 1.8,–,80.5 ± 3.2,98 ± 3.1,19.5,30.9,6.92,–,–
